Test results reported in patent US10369166B2 (priority 2014, dated 2019).
“And” between values parts separate entries of the source, which are not always exact repeats. Equal values may be shown once. Read-outs that look alike come from different tables or passages of the source.

Experiments:
Ebola virus = conditions: in vivo
[1] = in vivo; cited from earlier work
COLLAGEN = conditions: cited from earlier work
(CAT B) CATHEPSIN B [2] = target: T1, (CAT B) CATHEPSIN B (Homo sapiens, UniProt P07858); format: biochemical
(CAT B) CATHEPSIN B [3] = target: T1, (CAT B) CATHEPSIN B; conditions: cited from earlier work
[4] = mouse, in vivo; cited from earlier work
[5] = in vivo
Ebolavirus Sudan Gulu = format: cell-based
TNF ALPHA = TNF ALPHA (Homo sapiens, UniProt P01375); conditions: cited from earlier work
[6] = in vivo, cited from earlier work
S-ADENOSYL HO[…] (SAHH) = S-ADENOSYL HO[…] (SAHH) (Homo sapiens, UniProt P23526); conditions: cited from earlier work
[7] = test system: G9a/GLP-mediated dimethylation of histone 3 on lysine 9; conditions: cited from earlier work
GLP = target: T2, GLP (Homo sapiens, UniProt Q9H9B1); conditions: cited from earlier work
T2 sequence (Q9H9B1 1-1298): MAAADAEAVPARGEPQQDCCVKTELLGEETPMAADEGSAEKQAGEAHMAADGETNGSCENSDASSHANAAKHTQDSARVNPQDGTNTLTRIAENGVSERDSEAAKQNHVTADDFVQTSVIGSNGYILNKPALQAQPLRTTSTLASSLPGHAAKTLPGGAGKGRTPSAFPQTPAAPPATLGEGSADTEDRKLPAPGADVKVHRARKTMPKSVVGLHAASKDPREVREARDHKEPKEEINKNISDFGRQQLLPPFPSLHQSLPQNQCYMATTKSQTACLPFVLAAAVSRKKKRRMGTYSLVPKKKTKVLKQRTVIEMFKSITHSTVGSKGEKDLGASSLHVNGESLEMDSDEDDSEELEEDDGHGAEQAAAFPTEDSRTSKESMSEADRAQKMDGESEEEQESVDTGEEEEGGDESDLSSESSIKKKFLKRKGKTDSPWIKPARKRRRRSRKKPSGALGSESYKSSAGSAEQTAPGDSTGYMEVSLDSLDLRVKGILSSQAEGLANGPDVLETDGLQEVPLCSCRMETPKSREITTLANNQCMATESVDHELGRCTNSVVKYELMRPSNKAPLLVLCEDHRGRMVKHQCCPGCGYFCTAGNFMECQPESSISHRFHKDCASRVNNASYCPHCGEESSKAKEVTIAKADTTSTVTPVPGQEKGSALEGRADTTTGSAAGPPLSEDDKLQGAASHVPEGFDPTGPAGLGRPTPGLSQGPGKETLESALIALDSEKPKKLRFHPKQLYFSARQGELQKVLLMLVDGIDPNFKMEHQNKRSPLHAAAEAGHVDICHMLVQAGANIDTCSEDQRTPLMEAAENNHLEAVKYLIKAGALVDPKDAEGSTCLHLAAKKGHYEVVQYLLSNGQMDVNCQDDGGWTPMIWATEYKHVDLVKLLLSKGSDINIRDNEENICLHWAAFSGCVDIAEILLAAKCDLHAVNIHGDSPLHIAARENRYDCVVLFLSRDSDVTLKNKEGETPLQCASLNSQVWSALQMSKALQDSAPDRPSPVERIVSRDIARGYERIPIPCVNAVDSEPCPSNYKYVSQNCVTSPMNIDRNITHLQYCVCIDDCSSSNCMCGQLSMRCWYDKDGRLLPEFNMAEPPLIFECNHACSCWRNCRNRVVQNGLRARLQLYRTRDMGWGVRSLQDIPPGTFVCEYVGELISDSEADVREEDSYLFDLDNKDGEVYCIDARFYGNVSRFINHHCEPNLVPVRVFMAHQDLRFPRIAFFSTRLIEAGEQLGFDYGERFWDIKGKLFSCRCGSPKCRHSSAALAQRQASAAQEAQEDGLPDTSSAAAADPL

MCF7 cells = conditions: cited from earlier work
folate = conditions: cited from earlier work

TNF ALPHA, sequence (P01375 whole entry, species assumed): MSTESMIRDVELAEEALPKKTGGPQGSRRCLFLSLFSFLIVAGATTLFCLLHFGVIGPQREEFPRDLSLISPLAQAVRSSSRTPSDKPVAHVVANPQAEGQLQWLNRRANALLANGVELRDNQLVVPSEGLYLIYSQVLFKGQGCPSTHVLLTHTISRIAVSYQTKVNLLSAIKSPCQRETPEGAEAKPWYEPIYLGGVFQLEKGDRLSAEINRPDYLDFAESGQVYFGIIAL
S-ADENOSYL HO[…] (SAHH), sequence (P23526 whole entry, species assumed): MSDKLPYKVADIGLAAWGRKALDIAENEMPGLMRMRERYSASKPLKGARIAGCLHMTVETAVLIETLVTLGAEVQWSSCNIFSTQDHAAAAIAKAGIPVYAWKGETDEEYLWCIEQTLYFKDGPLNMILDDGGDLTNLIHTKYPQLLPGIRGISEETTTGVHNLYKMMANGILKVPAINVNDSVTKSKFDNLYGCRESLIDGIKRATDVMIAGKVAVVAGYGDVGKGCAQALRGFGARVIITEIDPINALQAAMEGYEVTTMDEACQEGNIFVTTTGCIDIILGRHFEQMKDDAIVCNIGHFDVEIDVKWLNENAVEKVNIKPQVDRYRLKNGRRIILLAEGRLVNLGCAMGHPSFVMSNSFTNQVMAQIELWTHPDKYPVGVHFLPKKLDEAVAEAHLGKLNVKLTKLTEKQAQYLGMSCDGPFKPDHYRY

For Nc1nccc2c1ncn2[C@@H]1C=C(CO)[C@@H](O)[C@H]1O [3-DEAZANEPLANOCIN A], the “Residual estimated viral load” value (Ebola virus) was 10^5 pfu/ml and 10^7 pfu/ml and 10^8 pfu/ml.

In the case of Nc1ncnc2c1ncn2[C@@H]1O[C@H](COP(=O)(O)O)[C@@H](O)[C@H]1O [ADENOSINE MONOPHOSPHATE], the LD50 [1] is listed as 2900 mg/kg.

In the case of N=C(N)NCCC[C@H](N)C(=O)O [Arginine], the ED50 (COLLAGEN) is given as 2.5 g.

In the case of COc1ccc2cc3[n+](cc2c1OC)CCc1cc2c(cc1-3)OCO2 [BERBERINE], the ED50 ((CAT B) CATHEPSIN B [2]) is given as 0.185 g/day, the IC50 ((CAT B) CATHEPSIN B [3]) is given as 550 µM and the “residual viral load after the product (sequential)” value (shortened to “residual viral load”) (Ebola virus) is given as 235 pfu/ml. The “Oral LD50” value [4] was “(mouse): >29,586 mg/kg” and the LD50 [5] was 2072 g.

In the case of CC1(C)CC[C@]2(C(=O)O)CC[C@]3(C)C(=CC[C@@H]4[C@@]5(C)CC[C@H](O)C(C)(C)[C@@H]5CC[C@]43C)[C@@H]2C1 [BETA-OLEANOLIC ACID], the ED50 ((CAT B) CATHEPSIN B [2]) is given as 0.004 g, the IC50 ((CAT B) CATHEPSIN B [3]) is given as 9 µM and the “residual viral load” value (Ebola virus) is given as 1875 pfu/ml.

In the case of C[C@H]1[C@H](C)CC[C@]2(C(=O)O)CC[C@]3(C)C(=CC[C@@H]4[C@@]5(C)CC[C@H](O)C(C)(C)[C@@H]5CC[C@]43C)[C@H]12 [BETA-URSOLIC ACID], the IC50 ((CAT B) CATHEPSIN B [3]) is given as 10 µM and the “residual viral load” value (Ebola virus) is given as 12500 pfu/ml.

With Nc1nccc2c1ncn2[C@@H]1O[C@H](CO)[C@@H](O)[C@H]1O [CA-C3-ADO, 3-deaza-adenosine] the “Molarity at last dilution” value (Ebolavirus Sudan Gulu) was 200 µM.

In the case of COc1cc(/C=C/C(=O)CC(=O)/C=C/c2ccc(O)c(OC)c2)ccc1O [CURCUMIN], the ED50 (TNF ALPHA) is given as 29 to 60 mg/kg and the “residual viral load” value (Ebola virus) is given as 25000 pfu/ml.

For CC(C)N(CCCNC(=O)Nc1ccc(C(C)(C)C)cc1)C[C@H]1O[C@@H](n2ccc3c(N)ncnc32)[C@H](O)[C@@H]1O [EPZ004777], the “Rat LD50” value [6] is listed as 590 mg/kg.

For CC(C)N(C[C@H]1O[C@@H](n2cnc3c(N)ncnc32)[C@H](O)[C@@H]1O)C1CC(CCc2nc3ccc(C(C)(C)C)cc3[nH]2)C1 (stereo partly drawn) [EPZ-5676], the “Molarity at last dilution” value (Ebolavirus Sudan Gulu) was 0.4 µM.

N[C@@H](CCS)C(=O)O [HOMOCYSTEINE] showed an ED50 (E[…]) of 0.4725 g.

For OC[C@H]1O[C@@H](n2cnc3c(O)ncnc32)[C@H](O)[C@@H]1O [INOSINE], the ED50 (S-ADENOSYL HO[…] (SAHH)) is given as 29 to 60 mg/kg.

In the case of O=c1c(O)c(-c2ccc(O)cc2)oc2cc(O)cc(O)c12 [Kaemferol], the LD50 [1] is given as 2170 mg/kg.

In the case of COc1c(C)c2c(c(O)c1C/C=C(\C)CCC(=O)O)C(=O)OC2 [Mycophenolic acid], the “Residual estimated viral load” value (Ebola virus) is reported as 2 × 10^6 pfu/ml.

For CCCCN1C[C@H](O)[C@@H](O)[C@H](O)[C@H]1CO [N-B-DEOXYNOJIRIMYCIN], the ED50 (α-glucosidase) is given as 32.85 mg, the LD50 ([6]; rat, po) is given as “LD50 1,300 mg mg kg-1” and the “Residual estimated viral load” value (Ebola virus) is given as 10^7 pfu/ml.

For NCCC[C@H](N)C(=O)O [Ornithine], the ED50 (COLLAGEN) is listed as 3.5 g.

In the case of O=c1c(O)c(-c2ccc(O)c(O)c2)oc2cc(O)cc(O)c12 [QUERCETIN], the ED50 ((CAT B) CATHEPSIN B [2]) is listed as 0.03 g, the IC50 ((CAT B) CATHEPSIN B [3]) is listed as 11 µM and the “Oral LD50” value ([6]; rat, po) is listed as “(rat): 161 mg/kg”. The “residual viral load” value (Ebola virus) was 469 pfu/ml and the LD50 [5] was 11.27 g.

For CC(C)N(CCCNC(=O)Nc1ccc(C(C)(C)C)cc1)C[C@H]1O[C@@H](n2cc(Br)c3c(N)ncnc32)[C@H](O)[C@@H]1O [SGC 0946], the “Rat LD50” value [6] is listed as 590 mg/kg and the LD50 [5] is listed as 41.3 g.

For COc1cc2c(NC3CCN(CC4CCCCC4)CC3)nc(N3CCCN(C(C)C)CC3)nc2cc1OCCCN1CCCCC1 [UNC0631], the LD50 [1] is listed as 2 mg/kg and the IC50 [7] is listed as 0.004 µM.

For COc1cc2c(NC3CCN(C4CCCCC4)CC3)nc(N3CCCN(C(C)C)CC3)nc2cc1OCCCN1CCCCC1 [UNC0646], the IC50 (GLP) is given as 0.015 µM and the EC50 (MCF7 cells) is given as 4.7 µM.

For [O]=[V]([O-])([O-])[O-] [VANADATE], the “residual viral load” value (Ebola virus) was 212 pfu/ml.

In the case of O=C1O[C@H]([C@@H](O)CO)C(O)=C1O [VITAMIN C], the ED50 (TNF ALPHA) is given as 29 to 60 mg/kg, the LD50 [1] is given as 11,900 mg/kg and the “residual viral load” value (Ebola virus) is given as 50000 pfu/ml.

In the case of NC(=O)c1ncn([C@@H]2O[C@H](CO)[C@@H](O)[C@H]2O)n1 [ribovirin], the “Molarity at last dilution” value (Ebolavirus Sudan Gulu) is reported as 25 µM.

For NC(CCSCCCCC(=O)O)C(=O)O (stereo not drawn) [s-carboxybutyl DL homocysteine], the LD50 [1] is given as 500 mg/kg.

For epigallocatechin-3 gallate [EGCG], the IC50 (folate) is given as 34.8 µM and the “residual viral load” value (Ebola virus) is given as 106 pfu/ml.
